Laboratory results published in patent US20030013905A1, “Salts of cis-4-cyano-4[3(cyclopentyloxy)-4-methoxyphenyl]cyclohexane-1-carboxylic acid” (priority 2002, published 2003).
Structures can show the parent of a compound that is named as a salt.

Assay: Water uptake on exposure to air (Karl Fisher water content)
Assay type: physicochemical
Conditions: recrystallized sodium salt 1(b), exposed to air at room temperature for 1 week; 2.9% before exposure; said to indicate fairly high hydroscopic nature

water content on Karl Fisher after exposure to air: 22.9%
SMILES: COc1ccc(C2(C#N)CCC(C(=O)O)CC2)cc1OC1CCCC1 (stereo not drawn) [Example 1, cis-4-cyano-4-[3-(cyclopentyloxy)-4-methoxyphenyl]cyclohexane-1-carboxylic acid sodium salt]
